Key:
[1] = test system: MMP-9; assay: Substrate phage display with NGS: relative probability (RP) of P3-P1' tetramer clusters; type: biochemical, human; settings: MMP9; RP of the substrate's P3-P1' tetramer, substrate phage display with NGS;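 note: ratio of tetramer probability after protease selection to that in naive phage library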
[2] = molecular target: MMP-9 (Homo sapiens, UniProt P14780); assay: K(obs) of individual phage substrates (set of 1369); type: biochemical; settings: MMP9; individual phage substrate of the set of 1369 peptides; dash in sequence marks cleavage position
MMP-9 (Homo sapiens, UniProt P14780), sequence (P14780 94-707): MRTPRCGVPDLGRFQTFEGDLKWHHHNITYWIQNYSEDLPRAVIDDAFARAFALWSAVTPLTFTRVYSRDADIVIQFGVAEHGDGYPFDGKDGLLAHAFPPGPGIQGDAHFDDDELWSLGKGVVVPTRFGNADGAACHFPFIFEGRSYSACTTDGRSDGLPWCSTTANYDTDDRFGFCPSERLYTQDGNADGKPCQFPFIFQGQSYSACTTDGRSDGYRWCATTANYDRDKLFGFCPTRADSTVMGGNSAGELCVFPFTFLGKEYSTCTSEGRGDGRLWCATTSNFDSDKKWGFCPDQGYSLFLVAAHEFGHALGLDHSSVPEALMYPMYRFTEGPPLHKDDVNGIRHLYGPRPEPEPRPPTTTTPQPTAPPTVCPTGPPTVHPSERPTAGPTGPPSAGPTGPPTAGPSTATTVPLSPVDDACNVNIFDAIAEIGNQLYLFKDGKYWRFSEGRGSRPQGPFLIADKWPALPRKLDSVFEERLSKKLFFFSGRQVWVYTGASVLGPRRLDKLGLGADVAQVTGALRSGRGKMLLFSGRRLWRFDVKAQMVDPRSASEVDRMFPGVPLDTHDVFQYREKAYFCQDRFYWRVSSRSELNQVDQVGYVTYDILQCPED

[3] = molecular target: T1, MMP-2 (Homo sapiens, UniProt P08253); assay: as above; type: biochemical; settings: MMP2; individual phage substrate from the set of 1369 peptides; hyphen in the sequence marks the cleavage position
T1 sequence (P08253 110-660): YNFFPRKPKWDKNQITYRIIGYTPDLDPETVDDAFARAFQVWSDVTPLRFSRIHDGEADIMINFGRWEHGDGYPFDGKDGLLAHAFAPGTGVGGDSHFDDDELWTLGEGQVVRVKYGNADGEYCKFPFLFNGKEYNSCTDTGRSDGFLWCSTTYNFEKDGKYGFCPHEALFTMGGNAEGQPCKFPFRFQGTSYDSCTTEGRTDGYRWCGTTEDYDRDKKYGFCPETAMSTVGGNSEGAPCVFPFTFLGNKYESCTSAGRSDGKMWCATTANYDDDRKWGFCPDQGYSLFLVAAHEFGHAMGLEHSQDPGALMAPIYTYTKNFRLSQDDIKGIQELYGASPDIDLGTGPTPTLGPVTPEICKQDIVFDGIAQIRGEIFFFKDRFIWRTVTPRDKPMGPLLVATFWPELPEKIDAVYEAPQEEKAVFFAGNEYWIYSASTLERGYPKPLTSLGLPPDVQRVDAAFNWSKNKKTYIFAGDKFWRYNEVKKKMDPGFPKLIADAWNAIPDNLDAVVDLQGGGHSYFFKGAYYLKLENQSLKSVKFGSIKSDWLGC

Row | Kobs [2] | Kobs [3] | Substance | relative probability (RP) [1]
1 | 2687.73 M⁻¹ s⁻¹ | 3850.82 M⁻¹ s⁻¹ | RLVNW-MTASG | 19.0749
2 | 1981.53 M⁻¹ s⁻¹ | 1196.62 M⁻¹ s⁻¹ | RMPRQ-VTASG | 25.107
3 | 4922.1 M⁻¹ s⁻¹ | 4205.91 M⁻¹ s⁻¹ | RMWRA-FTASG | 17.7749
4 | 12792.1 M⁻¹ s⁻¹ | 1154.21 M⁻¹ s⁻¹ | RQPFL-LTASG | 33.1122
5 | 12792.1 M⁻¹ s⁻¹ | 6131.32 M⁻¹ s⁻¹ | RQPRN-VTASG | 40.3866
6 | 10866.7 M⁻¹ s⁻¹ | 12792.1 M⁻¹ s⁻¹ | RRPSA-LTASG | 47.6113
7 | 12792.1 M⁻¹ s⁻¹ | 12792.1 M⁻¹ s⁻¹ | RRPVA-YTASG | 47.2844
8 | 12792.1 M⁻¹ s⁻¹ | 12792.1 M⁻¹ s⁻¹ | RTPKG-LTASG | 48.4124
9 | 9740.44 M⁻¹ s⁻¹ | 2038.8 M⁻¹ s⁻¹ | RVPVP-MTASG | 46.3561
10 | 4922.1 M⁻¹ s⁻¹ | 12792.1 M⁻¹ s⁻¹ | RVVAN-LTASG | 32.1971
11 | 1561.44 M⁻¹ s⁻¹ | 1373.05 M⁻¹ s⁻¹ | SCVRM-MTASG | 24.5728
12 | 5889.62 M⁻¹ s⁻¹ | 9740.44 M⁻¹ s⁻¹ | SDVRF-LTASG | 26.3541
13 | 8941.32 M⁻¹ s⁻¹ | 2761.81 M⁻¹ s⁻¹ | SGALN-FYSTA | 19.1713
14 | 12792.1 M⁻¹ s⁻¹ | 12792.1 M⁻¹ s⁻¹ | SGASN-LRGTA | 27.6194
15 | 12792.1 M⁻¹ s⁻¹ | 3438.54 M⁻¹ s⁻¹ | SGAYN-FQATA | 19.0941
16 | 0 M⁻¹ s⁻¹ | 6688.74 M⁻¹ s⁻¹ | SGISA-LRKTA | 16.3812
17 | 2476.66 M⁻¹ s⁻¹ | 7815.03 M⁻¹ s⁻¹ | SGISW-MRHTA | 21.4
18 | 2344.36 M⁻¹ s⁻¹ | 12792.1 M⁻¹ s⁻¹ | SGPAS-FSVTA | 30.2578
19 | 9740.44 M⁻¹ s⁻¹ | 12792.1 M⁻¹ s⁻¹ | SGPAS-LLNTA | 46.2982

Row | Kobs [2] | Kobs [3] | Substance | relative probability (RP) [1]
20 | 2837.92 M⁻¹ s⁻¹ | 12792.1 M⁻¹ s⁻¹ | SGPAS-VRNTA | 25.8589
21 | 2687.73 M⁻¹ s⁻¹ | 292.668 M⁻¹ s⁻¹ | SGPFS-NRATA | 1.097
22 | 5090.5 M⁻¹ s⁻¹ | 12792.1 M⁻¹ s⁻¹ | SGPGA-MMFTA | 36.3159
23 | 6688.74 M⁻¹ s⁻¹ | 6396.07 M⁻¹ s⁻¹ | SGPHY-LMMTA | 37.3972
24 | 12792.1 M⁻¹ s⁻¹ | 1981.53 M⁻¹ s⁻¹ | SGPKF-LVMTA | 42.7484
25 | 12792.1 M⁻¹ s⁻¹ | 9740.44 M⁻¹ s⁻¹ | SGPKG-MRMTA | 48.8441
26 | 12792.1 M⁻¹ s⁻¹ | 5090.5 M⁻¹ s⁻¹ | SGPKL-LTASG | 35.7561
27 | 12792.1 M⁻¹ s⁻¹ | 4205.91 M⁻¹ s⁻¹ | SGPKL-LYGTA | 35.7561
28 | 12792.1 M⁻¹ s⁻¹ | 12792.1 M⁻¹ s⁻¹ | SGPKQ-LRVTA | 43.3387
29 | 4922.1 M⁻¹ s⁻¹ | 2409.72 M⁻¹ s⁻¹ | SGPKW-MRHTA | 51.5185
30 | 2837.92 M⁻¹ s⁻¹ | 0 M⁻¹ s⁻¹ | SGPLK-ITRTA | 38.9391
31 | 4613.14 M⁻¹ s⁻¹ | 6131.32 M⁻¹ s⁻¹ | SGPQW-MINTA | 45.9264
32 | 12792.1 M⁻¹ s⁻¹ | 12792.1 M⁻¹ s⁻¹ | SGPRA-VSATA | 40.8515
33 | 12792.1 M⁻¹ s⁻¹ | 12792.1 M⁻¹ s⁻¹ | SGPRD-ILATA | 41.2501
34 | 6131.32 M⁻¹ s⁻¹ | 3964.21 M⁻¹ s⁻¹ | SGPRF-LIGTA | 42.4535
35 | 7386.83 M⁻¹ s⁻¹ | 5889.62 M⁻¹ s⁻¹ | SGPRF-LLDTA | 42.4535
36 | 7815.03 M⁻¹ s⁻¹ | 1418.96 M⁻¹ s⁻¹ | SGPRG-MKTTA | 47.6962
37 | 12792.1 M⁻¹ s⁻¹ | 12792.1 M⁻¹ s⁻¹ | SGPRG-VTVTA | 42.1832
38 | 12792.1 M⁻¹ s⁻¹ | 5667.28 M⁻¹ s⁻¹ | SGPRL-YIGTA | 32.3351

Row | Kobs [2] | Kobs [3] | Substance | relative probability (RP) [1]
39 | 12792.1 M⁻¹ s⁻¹ | 12792.1 M⁻¹ s⁻¹ | SGPRN-LAVTA | 48.2698
40 | 12792.1 M⁻¹ s⁻¹ | 12792.1 M⁻¹ s⁻¹ | SGPRN-YHGTA | 46.9938
41 | 12792.1 M⁻¹ s⁻¹ | 12792.1 M⁻¹ s⁻¹ | SGPRQ-LSTTA | 43.5363
42 | 3253.29 M⁻¹ s⁻¹ | 3637.04 M⁻¹ s⁻¹ | SGPRS-HRVTA | 23.1314
43 | 12792.1 M⁻¹ s⁻¹ | 12792.1 M⁻¹ s⁻¹ | SGPRS-LKSTA | 44.7764
44 | 5090.5 M⁻¹ s⁻¹ | 5889.62 M⁻¹ s⁻¹ | SGPRS-WTNTA | 40.7744
45 | 12792.1 M⁻¹ s⁻¹ | 12792.1 M⁻¹ s⁻¹ | SGPRT-LVVTA | 42.2705
46 | 12792.1 M⁻¹ s⁻¹ | 12792.1 M⁻¹ s⁻¹ | SGPRW-LMSTA | 47.776
47 | 799.117 M⁻¹ s⁻¹ | 5269.78 M⁻¹ s⁻¹ | SGPSA-LDATA | 47.6113
48 | 6131.32 M⁻¹ s⁻¹ | 7815.03 M⁻¹ s⁻¹ | SGPSG-WTATA | 29.7011
49 | 7015.91 M⁻¹ s⁻¹ | 12792.1 M⁻¹ s⁻¹ | SGPSH-WIGTA | 19.8718
50 | 12792.1 M⁻¹ s⁻¹ | 12792.1 M⁻¹ s⁻¹ | SGPSR-LTFTA | 39.8157
51 | 12792.1 M⁻¹ s⁻¹ | 12792.1 M⁻¹ s⁻¹ | SGPSW-IMRTA | 43.303
52 | 6396.07 M⁻¹ s⁻¹ | 1418.96 M⁻¹ s⁻¹ | SGPVA-MTKTA | 44.6624
53 | 1154.21 M⁻¹ s⁻¹ | 1154.21 M⁻¹ s⁻¹ | SGPVH-MWNTA | 35.975
54 | 7015.91 M⁻¹ s⁻¹ | 12792.1 M⁻¹ s⁻¹ | SGPVS-MRYTA | 41.2029
55 | 12792.1 M⁻¹ s⁻¹ | 12792.1 M⁻¹ s⁻¹ | SGPWA-ITGTA | 50.8721
56 | 4613.14 M⁻¹ s⁻¹ | 1513.13 M⁻¹ s⁻¹ | SGPYS-WQVTA | 33.8051
57 | 7015.91 M⁻¹ s⁻¹ | 12792.1 M⁻¹ s⁻¹ | SGVAG-LYSTA | 21.512

From article PMC7932537, “Quantitative profiling of protease specificity” (PLoS Computational Biology, 2021)
